Our source for the IC50 values is ChEMBL document CHEMBL5500382, “Discovery of potent small molecule ubiquitin-specific protease 10 inhibitors with anti-hepatocellular carcinoma activity through regulating YAP expression” (Eur J Med Chem, 2024).

T1 sequence (Q14694 whole entry): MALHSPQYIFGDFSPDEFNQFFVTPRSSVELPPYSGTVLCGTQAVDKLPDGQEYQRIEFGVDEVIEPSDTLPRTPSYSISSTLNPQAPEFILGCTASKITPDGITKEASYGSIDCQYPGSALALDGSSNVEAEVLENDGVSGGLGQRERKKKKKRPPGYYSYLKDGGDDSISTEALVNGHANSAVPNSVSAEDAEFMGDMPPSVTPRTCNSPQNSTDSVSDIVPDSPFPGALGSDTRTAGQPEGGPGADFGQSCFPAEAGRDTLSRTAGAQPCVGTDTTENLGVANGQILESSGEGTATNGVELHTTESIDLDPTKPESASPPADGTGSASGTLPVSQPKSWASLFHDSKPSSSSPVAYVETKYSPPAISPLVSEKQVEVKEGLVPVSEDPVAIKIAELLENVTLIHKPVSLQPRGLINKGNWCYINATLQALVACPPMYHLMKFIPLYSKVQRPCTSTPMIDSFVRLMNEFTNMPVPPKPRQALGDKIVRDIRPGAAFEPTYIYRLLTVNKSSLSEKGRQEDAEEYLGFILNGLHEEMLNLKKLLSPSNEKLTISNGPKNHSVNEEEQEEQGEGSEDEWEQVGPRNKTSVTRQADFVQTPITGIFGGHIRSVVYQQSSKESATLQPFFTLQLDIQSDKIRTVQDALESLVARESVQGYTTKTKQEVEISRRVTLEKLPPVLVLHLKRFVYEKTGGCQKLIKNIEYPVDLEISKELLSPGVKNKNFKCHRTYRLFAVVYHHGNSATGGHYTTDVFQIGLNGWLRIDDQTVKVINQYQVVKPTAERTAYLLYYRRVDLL

One experiment concerns the target T1, Ubiquitin carboxyl-terminal hydrolase 10 (Homo sapiens, UniProt Q14694). Description: Inhibition of human recombinant his tagged USP10 assessed as deubiquitinase activity.
As a reminder, the IC50 is the concentration at which inhibition is half-maximal. With `CCOC(=O)c1cc([N+](=O)[O-])c(Oc2ccc(C(=O)OC)cc2)s1`, the IC50 amounted to 8.3 µM.

The target in a further experiment is T2, Ubiquitin carboxyl-terminal hydrolase 13 (Homo sapiens, UniProt Q92995).
T2 sequence (Q92995 whole entry): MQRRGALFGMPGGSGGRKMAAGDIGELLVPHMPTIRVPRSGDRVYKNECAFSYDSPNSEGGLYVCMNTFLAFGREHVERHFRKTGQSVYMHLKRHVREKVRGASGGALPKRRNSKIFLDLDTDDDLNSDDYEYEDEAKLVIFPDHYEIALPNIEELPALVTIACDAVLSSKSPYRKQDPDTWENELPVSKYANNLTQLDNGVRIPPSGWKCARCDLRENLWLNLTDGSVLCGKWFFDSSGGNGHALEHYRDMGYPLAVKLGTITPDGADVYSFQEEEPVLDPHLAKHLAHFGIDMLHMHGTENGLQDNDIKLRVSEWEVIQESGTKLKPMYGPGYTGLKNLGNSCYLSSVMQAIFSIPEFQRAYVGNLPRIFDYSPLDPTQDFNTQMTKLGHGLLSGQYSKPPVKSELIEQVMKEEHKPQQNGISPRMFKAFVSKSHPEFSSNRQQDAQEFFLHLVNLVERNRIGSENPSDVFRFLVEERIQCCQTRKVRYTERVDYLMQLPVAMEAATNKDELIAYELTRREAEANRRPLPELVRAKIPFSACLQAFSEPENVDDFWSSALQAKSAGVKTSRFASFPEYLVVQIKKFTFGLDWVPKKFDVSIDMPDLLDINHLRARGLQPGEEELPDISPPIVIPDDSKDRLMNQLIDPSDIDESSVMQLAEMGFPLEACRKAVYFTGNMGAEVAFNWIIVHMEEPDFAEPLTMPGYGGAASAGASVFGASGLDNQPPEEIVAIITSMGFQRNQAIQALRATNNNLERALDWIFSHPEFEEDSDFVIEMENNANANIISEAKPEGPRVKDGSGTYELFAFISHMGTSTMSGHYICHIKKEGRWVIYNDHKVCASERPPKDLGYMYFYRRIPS
Description: Inhibition of USP13 (unknown origin).
Compound `Fc1ccc(CNc2ncnc3ccc(F)cc23)cc1` gave an IC50 of 0.7 µM.

The subject of the next experiment is Bel-7402. Briefly: Antiproliferative activity against human Bel-7402 cells by CCK-8 method. (In general: Formazan colour is commonly taken as a measure of viable cells.)
Turning to `Cc1ccc2c(=O)c(-c3nc(-c4ccccc4C)no3)cn(CC(=O)Nc3c(F)cccc3F)c2n1`, inhibition was half-maximal at 22.7 µM (IC50).

The target in the next experiment is T1, Ubiquitin carboxyl-terminal hydrolase 10. Briefly: Inhibition of human USP10 deubiquitinase activity using Ubiquitin 7-amino-4-carbamoylmethylcoumarin as substrate preincubated for 30 mins followed by substrate addition and measured after 30 mins by fluorometric assay.
`COc1ccc([C@H](C)NC(=O)c2cn(CC(=O)NCCc3ccc(Cl)cc3)c3cc(C)ccc3c2=O)cc1` returned a half-inhibitory concentration (IC50) of 21.2 µM.
The compound `Cc1ccc2c(=O)c(-c3nc(-c4ccccc4C)no3)cn(CC(=O)Nc3c(F)cccc3F)c2n1` registered an IC50 of 11.1 µM.
For the compound `C[C@H](NC(=O)c1cn(CC(=O)NCCc2ccc(Cl)cc2)c2cc(F)ccc2c1=O)c1ccccc1`, the IC50 was found to be 11.9 µM.
Still for that read-out and setting: for `Cc1ccccc1NC(=O)c1c[nH]c2cc(C(F)(F)F)ccc2c1=O` the value was > 30 µM; for `Cc1ccc2c(=O)c(C(=O)N3CCOCC3)cn(CC(=O)NCCc3ccc(Cl)cc3)c2n1`, > 30 µM.
The same measure, in the same setting: the result for `Cc1ccc2c(=O)c(C(=O)NC3CCOCC3)cn(CC(=O)NCCc3ccc(Cl)cc3)c2n1` reads > 30 µM; that for `Cc1ccc2c(c1)c(=O)c(C(=O)Nc1ccccc1C)cn2CC(=O)NCCc1ccc(Cl)cc1`, > 30 µM; that for `Cc1ccccc1NC(=O)c1cn(CC(=O)NCCc2ccc(Cl)cc2)c2cc(N3CCOCC3)ccc2c1=O`, 8.4 µM.
In the case of `Cc1ccc2c(=O)c(-c3nnc(Cc4ccccc4)o3)cn(CC(=O)NCCc3ccc(Cl)cc3)c2c1`, half-maximal inhibition (IC50) was put at 9 µM.
With `Cc1ccc2c(=O)c(C(=O)N[C@@H](C)c3ccccc3)cn(CC(=O)NCCc3ccc(Cl)cc3)c2c1`, the IC50 was > 30 µM.
Same read-out and setting: for `Cc1ccc2c(=O)c(-c3nc(-c4ccccc4C)no3)cn(CC(=O)NC3CCN(c4ccc(Cl)cc4)CC3)c2c1` the value was 9.2 µM; for `Cc1ccc2c(=O)c(C(=O)N[C@@H](C)c3ccccc3)cn(CC(=O)N3CCN(c4ccc(Cl)cc4)CC3)c2c1`, 10.9 µM; for `Cc1ccc2c(=O)c(C(=O)N[C@@H](C)c3ccc(F)cc3)cn(CC(=O)NCCc3ccc(Cl)cc3)c2c1`, > 30 µM.
Still for that read-out and setting: the result for `Cc1ccccc1NC(=O)c1cn(CC(=O)NCCc2ccc(Cl)cc2)c2ccc(F)cc2c1=O` reads > 30 µM; that for `Cc1ccc2c(=O)c(C(=O)Nc3ccccc3C)cn(CC(=O)NCCc3ccc(Cl)cc3)c2n1`, 9.5 µM.
Same read-out and setting: the result for `Cc1ccccc1NC(=O)c1cn(CC(=O)NCCc2ccc(Cl)cc2)c2cc(N3CCCCC3)ccc2c1=O` reads 10.6 µM; that for `COCCOc1ccc(N2CCN(C(=O)Cn3cc(C(=O)Nc4ccccc4C)c(=O)c4ccc(C(F)(F)F)cc43)CC2)cc1`, > 30 µM.
As to `Cc1ccccc1NC(=O)c1cn(CC(=O)N2CC3(CCN(C(=O)OC(C)(C)C)CC3)C2)c2cc(C(F)(F)F)ccc2c1=O`, the half-maximal inhibitory concentration (IC50) was > 30 µM.
`Cc1ccccc1NC(=O)c1cn(CC(=O)N2CCC(N3CCN(C)CC3)CC2)c2cc(C(F)(F)F)ccc2c1=O`: the half-maximal inhibitory concentration (IC50) was > 30 µM.
The same measure, in the same setting: for `C[C@H](NC(=O)c1cn(CC(=O)NCCc2ccc(Cl)cc2)c2cc(C(F)(F)F)ccc2c1=O)c1ccccc1` the value was > 30 µM.
On the same count and under the same terms, the result for `COc1ccc2c(=O)c(-c3nc(-c4ccccc4C)no3)cn(CC(=O)NCCc3ccc(Cl)cc3)c2c1` reads 7.9 µM; that for `Cc1ccccc1NC(=O)c1cn(CC(=O)NC(C)CO)c2cc(C(F)(F)F)ccc2c1=O` (stereo not given), > 30 µM.
